This passage reports melting point results from patent US7932271B2, “Heterocyclic methyl sulfone derivative” (Daiichi Pharmaceutical Co., Ltd., priority 2003, dated 2011).

Counter-ions that a name gives are not always drawn.

In general, melting point refers to the temperature, or range, at which the solid turns liquid.

The compound `O=S(=O)(c1ccc(Cl)cc1)C(c1ccc[n+]([O-])c1)c1cc(F)ccc1F` (stereo not shown) [Example 51, 3-[(4-Chlorophenylsulfonyl)-(2,5-difluorophenyl)methyl]pyridine-N-oxide] showed a melting point of 183 to 184 °C.

In turn, `O=C(O)c1cc(C(c2cc(F)ccc2F)S(=O)(=O)c2ccc(Cl)cc2)c(Cl)cn1` (stereo not shown) [Example 262, 5-Chloro-4-[(4-chlorophenylsulfonyl)(2,5-difluorophenyl)methyl]picolinic acid] displayed a melting point of 94 to 96 °C.

In turn, `CN(C)S(=O)(=O)NCc1ccc(C(c2cc(F)ccc2F)S(=O)(=O)c2ccc(Cl)cc2)nc1` (stereo not shown) [Example 68, N-[[6-[(4-Chlorophenylsulfonyl)(2,5-difluorophenyl)methyl]pyridin-3-yl]methyl]-N′,N′-dimethylsulfamide] showed a melting point of 177 to 178 °C. Consider `CC(C)(C)OC(=O)N1CCC(C(c2cc(F)ccc2F)S(=O)(=O)c2ccc(Cl)cc2)CC1` (stereo not shown) [Example 37, t-Butyl 4-[[(4-chlorophenyl)sulfonyl](2,5-difluorophenyl)methyl]-1-piperidinecarboxylate], for which the melting point was in the range of 193 to 196 °C.

For `Nc1cccc(C(c2cc(F)ccc2F)S(=O)(=O)c2ccc(Cl)cc2)n1` (stereo not shown) [Example 149, 6-[(4-Chlorophenylsulfonyl)(2,5-difluorophenyl)methyl]pyridin-2-ylamine], the melting point lay in the range of 183 to 184 °C. For `COc1ccc(CNc2cc(C(c3cc(F)ccc3F)S(=O)(=O)c3ccc(Cl)cc3)c(Cl)cn2)cc1OC` (stereo not shown) [Example 186, 5-Chloro-4-[(4-chlorophenylsulfonyl)(2,5-difluorophenyl)methyl]-2-(3,4-dimethoxybenzylamino)pyridine], the melting point lay within 204 to 206 °C. With `O=C(O)c1cccc(C(c2cc(F)ccc2F)S(=O)(=O)c2ccc(Cl)cc2)n1` (stereo not shown) [Example 146, 6-[(4-Chlorophenylsulfonyl)(2,5-difluorophenyl)methyl]picolinic acid] the figure was 200 to 201 °C; with `Fc1ccc(F)c(C(Sc2ccc(Cl)cc2)c2cc(Cl)ncc2Cl)c1` (stereo not shown) [Example 54, 2,5-Dichloro-4-[(4-chlorophenylthio)-(2,5-difluorophenyl)methyl]pyridine], 128 to 129 °C. The same measure for `Fc1ccc(F)c(C(Sc2ccc(Cl)cc2)c2ccc(C3OCCO3)cn2)c1` (stereo not shown) [Example 41, 2-[(4-Chlorophenylthio)-(2,5-difluorophenyl)methyl]-5-(1,3-dioxolan-2-yl)pyridine]: 70 to 73 °C. The same measure for `CS(=O)(=O)Nc1cc(C(c2cc(F)ccc2F)S(=O)(=O)c2ccc(Cl)cc2)c(F)cn1` (stereo not shown) [Example 204, N-[4-[(4-Chlorophenylsulfonyl)(2,5-difluorophenyl)methyl]-5-fluoropyridin-2-yl]methanesulfonamide]: 217 to 219 °C.

`O=c1oc2ccccc2c(O)c1C(Sc1ccc(Cl)cc1)c1cc(F)ccc1F` (stereo not shown) yielded a melting point of 146 to 147 °C.

`COC(=O)/C=C/c1ccc(C(c2cc(F)ccc2F)S(=O)(=O)c2ccc(Cl)cc2)nc1` (stereo not shown) [Example 44, Methyl 3-[6-[(4-chlorophenylsulfonyl)-(2,5-difluorophenyl)methyl]pyridin-3-yl]acrylate] had a melting point of 145 to 146 °C. With `CC(C)(CO)CNc1cc(C(c2cc(F)ccc2F)S(=O)(=O)c2ccc(Cl)cc2)c(Cl)cn1` (stereo not shown) [Example 195, 3-[5-Chloro-4-[(4-chlorophenylsulfonyl)(2,5-difluorophenyl)methyl]pyridin-2-ylamino]-2,2-dimethylpropan-1-ol] the figure was 176 to 178 °C; with `O=C1CCCN1CCCNc1cc(C(c2cc(F)ccc2F)S(=O)(=O)c2ccc(Cl)cc2)c(Cl)cn1` (stereo not shown) [Example 169, 1-[3-[[5-Chloro-4-[(4-chlorophenylsulfonyl)-(2,5-difluorophenyl)methyl]pyridin-2-yl]amino]propyl]pyrrolidin-2-one], 78 to 80 °C. In turn, `Cc1ccc(C(c2cc(F)ccc2F)S(=O)(=O)c2ccc(Cl)cc2)nc1` (stereo not shown) [Example 15, 2-[[(4-Chlorophenyl)sulfonyl]-(2,5-difluorophenyl)methyl]-5-methylpyridine] had a melting point of 159 to 160 °C. In the case of `O=C(Nc1nccs1)c1cnc(C(c2cc(F)ccc2F)S(=O)(=O)c2ccc(Cl)cc2)c(F)c1` (stereo not shown) [Example 128, 6-(4-Chlorophenylsulfonyl)(2,5-difluorophenyl)methyl-5-fluoro-N-thiazol-2-ylnicotinamide], the melting point fell in the range of 243 to 245 °C.

As to `O=C(O)/C=C/c1ccc(C(c2cc(F)ccc2F)S(=O)(=O)c2ccc(Cl)cc2)nc1` (stereo not shown) [Example 135, (E)-3-[6-[(4-Chlorophenylsulfonyl)(2,5-difluorophenyl)methyl]pyridin-3-yl]acrylic acid], the melting point fell in the range of 236 to 238 °C. With `COCCCNc1cc(C(c2cc(F)ccc2F)S(=O)(=O)c2ccc(Cl)cc2)c(Cl)cn1` (stereo not shown) [Example 184] the figure was 146 to 148 °C; with `O=C(O)CCNc1cc(C(c2cc(F)ccc2F)S(=O)(=O)c2ccc(Cl)cc2)c(Cl)cn1` (stereo not shown) (hydrate or solvate) [Example 155, 3-[[5-Chloro-4-[(4-chlorophenylsulfonyl)-(2,5-difluorophenyl)methyl]pyridin-2-yl]amino]propionic acid], 200 to 205 °C; with `CC(=O)NCCCNc1cc(C(c2cc(F)ccc2F)S(=O)(=O)c2ccc(Cl)cc2)c(Cl)cn1` (stereo not shown) [Example 174, N-[3-[[5-Chloro-4-[(4-chlorophenylsulfonyl)-(2,5-difluorophenyl)methyl]pyridin-2-yl]amino]propyl]acetamide], 103 to 105 °C. The same measure for `C=CCOc1cccnc1C(c1cc(F)ccc1F)S(=O)(=O)c1ccc(Cl)cc1` (stereo not shown) [Example 18, 3-Allyloxy-2-[[(4-chlorophenyl)sulfonyl]-(2,5-difluorophenyl)methyl]pyridine]: 119 to 120 °C.

`O=S(=O)(c1ccc(Cl)cc1)C(c1cc(F)ccc1F)C1CCSCC1` (stereo not shown) [Example 35, 4-[[(4-Chlorophenyl)sulfonyl](2,5-difluorophenyl)methyl]tetrahydrothiopyrane] gave a melting point of 150 to 152 °C. The same measure for `Cl.O=S(=O)(c1ccc(Cl)cc1)C(c1cc(F)ccc1F)C1CCNCC1` (stereo not shown): 184 to 190 °C; for `O=C(Nc1ccon1)c1cnc(C(c2cc(F)ccc2F)S(=O)(=O)c2ccc(Cl)cc2)c(F)c1` (stereo not shown) [Example 129, 6-(4-Chlorophenylsulfonyl)(2,5-difluorophenyl)methyl-5-fluoro-N-isoxazol-3-ylnicotinamide]: 200 to 202 °C; for `Cc1ccnc(C(c2cc(F)ccc2F)S(=O)(=O)c2ccc(Cl)cc2)c1` (stereo not shown) [Example 16, 2-[[(4-Chlorophenyl)sulfonyl]-(2,5-difluorophenyl)methyl]-4-methylpyridine]: 116 to 117 °C. `Cc1cnc(CO)cc1C(c1cc(F)ccc1F)S(=O)(=O)c1ccc(Cl)cc1` (stereo not shown) [Example 207, [4-[(4-Chlorophenylsulfonyl)(2,5-difluorophenyl)methyl]-5-methylpyridin-2-yl]methanol] gave a melting point of 196 to 198 °C.

Regarding `O=S(=O)(c1ccc(Cl)cc1)C(c1cc(F)ccc1F)c1cc(Cl)ncc1Cl` (stereo not shown) (hydrate or solvate) [Example 57, 2,5-Dichloro-4-[(4-chlorophenylsulfonyl)-(2,5-difluorophenyl)methyl]pyridine 0.5 hydrate], the melting point lay in the range of 147 to 148 °C. With `CCOC(=O)C(=O)NCc1ccc(C(c2cc(F)ccc2F)S(=O)(=O)c2ccc(Cl)cc2)nc1` (stereo not shown) [Example 69, Ethyl 2-[[6-[(4-Chlorophenylsulfonyl)(2,5-difluorophenyl)methyl]pyridin-3-yl]methylamino]-2-oxoacetate] the figure was 193 to 194 °C; with `O=C(NCCO)c1ccc(C(c2cc(F)ccc2F)S(=O)(=O)c2ccc(Cl)cc2)nc1` (stereo not shown) [Example 140, 6-[(4-Chlorophenylsulfonyl)(2,5-difluorophenyl)methyl]-N-(2-hydroxyethyl)nicotinamide], 179 to 181 °C. With `O=S(=O)(c1ccc(Cl)cc1)C(c1cc(F)ccc1F)c1cc(CO)ncc1Cl` (stereo not shown) [Example 257, [5-Chloro-4-[(4-chlorophenylsulfonyl)(2,5-difluorophenyl)methyl]pyridin-2-yl]methanol] the figure was 164 to 165 °C; with `O=C(O)CCc1cnc(C(c2cc(F)ccc2F)S(=O)(=O)c2ccc(Cl)cc2)c(F)c1` (stereo not shown) [Example 133, 3-[6-(4-Chlorophenylsulfonyl)(2,5-difluorophenyl)methyl-5-fluoropyridin-3-yl]propionic acid], 174 to 176 °C. With `Cc1cccnc1C(c1cc(F)ccc1F)S(=O)(=O)c1ccc(Cl)cc1` (stereo not shown) [Example 14, 2-[[(4-Chlorophenyl)sulfonyl]-(2,5-difluorophenyl)methyl]-3-methylpyridine] the figure was 142 to 143 °C; with `O=C(O)c1ccc(C(c2cc(F)ccc2F)S(=O)(=O)c2ccc(Cl)cc2)nc1` (stereo not shown) [Example 50, [6-[(4-Chlorophenylsulfonyl)-(2,5-difluorophenyl)methyl]pyridin-3-yl]carboxylic acid], > 230 °C. For `O=C(O)c1cc(C(c2cc(F)ccc2F)S(=O)(=O)c2ccc(Cl)cc2)c(F)cn1` (stereo not shown) [Example 201, 4-[(4-Chlorophenylsulfonyl)(2,5-difluorophenyl)methyl]-5-fluoropicolinic acid], the melting point lay within 208 to 209 °C. The same measure for `O=S(=O)(c1ccc(Cl)cc1)C(c1cccc(CCc2ccccn2)n1)c1cc(F)ccc1F` (stereo not shown) [Example 152, 2-[(4-Chlorophenylsulfonyl)(2,5-difluorophenyl)methyl]-6-(2-pyridin-2-ylethyl)pyridine]: 88 to 89 °C; for `NCCCNc1cc(C(c2cc(F)ccc2F)S(=O)(=O)c2ccc(Cl)cc2)c(Cl)cn1` (stereo not shown) (as salt: hydrochloride) [Example 173, N-[5-Chloro-4-[(4-chlorophenylsulfonyl)-(2,5-difluorophenyl)methyl]pyridin-2-yl]propane-1,3-diamine dihydrochloride]: 193 to 195 °C. As for `COc1ccc(CNc2cc(C(c3cc(F)ccc3F)S(=O)(=O)c3ccc(F)cc3)c(Cl)cn2)cc1OC` (stereo not shown) [Example 214, [5-Chloro-4-[(2,5-difluorophenyl)-(4-fluorophenylsulfonyl)methyl]pyridin-2-yl](3,4-dimethoxybenzyl)amine], the melting point was in the range of 158 to 159 °C.
